Molecular target: T1, NEK6 (Homo sapiens, UniProt Q9HC98)
T1 construct: purchased Thermo Fisher Scientific (Life Technologies) SelectScreen
Test: SelectScreen Z'LYTE
Assay type: biochemical
Summary of the method: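 NU5455 was profiled across the SelectScreen Broad panel of kinase activity and binding assays. Z'LYTE reactions such as CSF1R ran at apparent Km ATP, while the Adapta CAMK1 assay used ATP listed as 10. Values are given as percent.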

T1 sequence (Q9HC98 whole entry): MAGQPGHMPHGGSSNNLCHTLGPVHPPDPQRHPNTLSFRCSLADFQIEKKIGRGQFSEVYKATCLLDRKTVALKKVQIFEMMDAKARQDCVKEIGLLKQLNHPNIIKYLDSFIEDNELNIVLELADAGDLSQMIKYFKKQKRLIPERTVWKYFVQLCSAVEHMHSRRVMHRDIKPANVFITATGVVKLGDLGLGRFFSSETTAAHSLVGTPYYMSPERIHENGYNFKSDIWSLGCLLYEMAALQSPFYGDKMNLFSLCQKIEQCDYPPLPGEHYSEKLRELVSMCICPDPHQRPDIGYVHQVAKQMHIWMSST

`CN(C(=O)CN1CCOCC1)c1ccc2sc3c(-c4cccc5c(=O)cc(N6CC7CCC(C6)O7)oc45)cccc3c2c1` [NU5455] was tested, and the inhibition at 1 µM was -19.8%.

— PMC6934184, “Selective DNA-PKcs inhibition extends the therapeutic index of localized radiotherapy and chemotherapy” (The Journal of Clinical Investigation, 2019)
